A compilation of properties of binary mixtures (doi:10.1021/acs.jced.0c00987)

Assay: xn = mol fraction of the nth substance listed
Details: 100 kPa

OCCN(CCO)CCO + CCOS(=O)(=O)[O-].CC[n+]1ccn(C)c1
Details | electrical conductivity, 298.15 K [S/m] | electrical conductivity, 313.15 K [S/m] | viscosity, 293.15 K [mPa·s] | viscosity, 298.15 K [mPa·s] | viscosity, 303.15 K [mPa·s] | viscosity, 313.15 K [mPa·s]
x1 = 0.153 | 0.356 | – | – | 97.8 | 77.1 | –
x1 = 0.285 | 0.284 | 0.53 | 121.9 | 94.1 | 74 | 48.1
x1 = 0.52 | 0.173 | 0.349 | 137.4 | 103.5 | 79.5 | 49.8
x1 = 0.617 | 0.126 | 0.266 | – | 117.8 | – | 54.3
x1 = 0.703 | 0.085 | 0.189 | 209.4 | 151.8 | 112.4 | 66
x1 = 0.787 | – | 0.108 | 286.6 | – | 146.5 | 82.5
x1 = 0.866 | 0.0219 | 0.055 | 416 | 287.3 | – | 110.1
x1 = 0.929 | – | 0.0234 | 583 | – | – | 143.5
x1 = 0.967 | – | 0.0103 | – | – | – | 167.7
x2 = 0.003 | 0.0004 | 0.0012 | 871 | 579 | 394 | 197.1
x2 = 0.006 | 0.0008 | 0.0021 | 857 | 570 | – | 195.3
x2 = 0.019 | 0.0021 | 0.0058 | 792 | 528 | 361 | 182.4

OCCO + CCOS(=O)(=O)[O-].CC[n+]1ccn(C)c1
x1 = 1
Details | viscosity [mPa·s]
293.15 K | 20.8
313.15 K | 9.52

OCCN(CCO)CCO + CC[n+]1ccn(C)c1.O=S(=O)([O-])C(F)(F)F
Details | electrical conductivity, 298.15 K [S/m] | electrical conductivity, 313.15 K [S/m] | viscosity, 293.15 K [mPa·s] | viscosity, 298.15 K [mPa·s] | viscosity, 303.15 K [mPa·s] | viscosity, 313.15 K [mPa·s]
x1 = 0.084 | 0.82 | 1.29 | – | 43.4 | – | 25.7
x1 = 0.167 | 0.72 | – | 55.7 | 45.1 | – | –
x1 = 0.305 | 0.53 | 0.92 | 66.8 | 52.5 | 42 | 28.2
x1 = 0.426 | – | 0.63 | 86.2 | – | 51 | 32.8
x1 = 0.539 | – | 0.463 | 118.7 | – | 66.2 | 40.7
x1 = 0.641 | 0.137 | 0.296 | 165 | 118.4 | – | 50.9
x1 = 0.723 | 0.079 | – | 233.1 | 163.2 | 117.4 | –
x1 = 0.802 | 0.041 | 0.102 | 336 | 228.6 | 160.6 | 86.3
x1 = 0.875 | – | 0.05 | 477 | – | 220.7 | 114.8
x1 = 0.94 | 0.0067 | 0.019 | 678 | 449 | 306.2 | 155
x1 = 0.969 | 0.0032 | 0.0092 | 793 | 523 | 355 | 177.4
x2 = 0.003 | 0.0004 | 0.0012 | 913 | 599 | 405 | 200.7
x2 = 0.006 | 0.0007 | – | 902 | 591 | – | –
x2 = 0.017 | 0.0019 | 0.0054 | 848 | 557 | 377 | 188

OCCO + CC[n+]1ccn(C)c1.O=S(=O)([O-])C(F)(F)F
x1 = 1
Details | viscosity [mPa·s]
293.15 K | 20.8
298.15 K | 16.8
303.15 K | 13.8
313.15 K | 9.52

CCOS(=O)(=O)[O-].CC[n+]1ccn(C)c1 + OCC(O)CO
Details | electrical conductivity, 298.15 K [S/m] | electrical conductivity, 313.15 K [S/m] | viscosity, 293.15 K [mPa·s] | viscosity, 298.15 K [mPa·s] | viscosity, 303.15 K [mPa·s] | viscosity, 313.15 K [mPa·s]
x1 = 0.002 | 0.0004 | – | 1381.9 | 892 | 590 | –
x1 = 0.004 | 0.0006 | – | 1352.7 | 873 | 578 | –
x1 = 0.012 | 0.002 | 0.0063 | 1239 | 804 | 535 | 255.6
x2 = 0 | – | – | 123.5 | 95.9 | 75.7 | 49.7
x2 = 0.123 | – | 0.72 | 114.1 | – | 70.7 | 46.7
x2 = 0.264 | 0.386 | 0.71 | 104.7 | 81.9 | – | 43.1
x2 = 0.39 | 0.365 | 0.67 | 101.5 | 79.1 | 62.6 | 41.2
x2 = 0.5 | 0.313 | 0.6 | – | 81.2 | – | 41.2
x2 = 0.601 | – | 0.496 | 121 | – | 70.4 | 44.1
x2 = 0.703 | 0.173 | 0.371 | 162.3 | 119.2 | 89.3 | 53.3
x2 = 0.794 | 0.089 | 0.209 | 248.6 | 176.4 | 128 | 72.1
x2 = 0.901 | 0.026 | 0.071 | 533 | 360 | 249.8 | 129.3
x2 = 0.958 | 0.0075 | – | 922 | 604 | 406 | –
x2 = 0.98 | 0.0033 | 0.0102 | 1138.7 | 742 | – | 237.9

CC[n+]1ccn(C)c1.O=S(=O)([O-])C(F)(F)F + OCC(O)CO
Details | electrical conductivity, 298.15 K [S/m] | electrical conductivity, 313.15 K [S/m] | viscosity, 293.15 K [mPa·s] | viscosity, 298.15 K [mPa·s] | viscosity, 303.15 K [mPa·s] | viscosity, 313.15 K [mPa·s]
x1 = 0.002 | 0.0003 | 0.0008 | – | 887 | 588 | 280.1
x1 = 0.004 | 0.0006 | 0.0018 | 1333.2 | 862 | 572 | 272.9
x1 = 0.011 | 0.0014 | 0.0044 | 1257.8 | 815 | 543 | 259.2
x1 = 0.018 | 0.0025 | – | 1168.4 | 760 | 506 | –
x2 = 0.199 | 0.85 | 1.35 | – | 40.1 | 33.2 | 23.6
x2 = 0.299 | 0.77 | – | 50.2 | 40.7 | 33.4 | –
x2 = 0.401 | – | 1.16 | 57.2 | – | 36.6 | 24.9
x2 = 0.499 | 0.492 | 0.89 | 70.2 | 54.4 | 42.9 | 28
x2 = 0.605 | 0.316 | 0.6 | – | 73.4 | 56 | 34.7
x2 = 0.698 | 0.198 | 0.416 | – | 106.2 | 78.8 | 46.3
x2 = 0.805 | 0.089 | 0.21 | 261.5 | 182.8 | 130.6 | 71.6
x2 = 0.899 | 0.0255 | 0.066 | 545 | 366 | 251.6 | 128.5
x2 = 0.919 | 0.0172 | 0.0486 | 646 | 430 | 293.3 | 147.6
x2 = 0.962 | 0.0056 | 0.0174 | – | 633 | – | 206.8

CCOS(=O)(=O)[O-].CC[n+]1ccn(C)c1 + OCCN(CCO)CCO
x2 = 0
Details | viscosity [mPa·s]
293.15 K | 123.5
298.15 K | 95.9
313.15 K | 49.7

CCOS(=O)(=O)[O-].CC[n+]1ccn(C)c1 + OCCO
Details | electrical conductivity, 298.15 K [S/m] | electrical conductivity, 313.15 K [S/m] | viscosity, 293.15 K [mPa·s] | viscosity, 298.15 K [mPa·s] | viscosity, 303.15 K [mPa·s] | viscosity, 313.15 K [mPa·s]
x1 = 0.001 | – | 0.0161 | – | – | 13.5 | 9.345
x1 = 0.003 | 0.0213 | – | 20.6 | 16.7 | – | –
x1 = 0.008 | 0.057 | – | 20.6 | 16.7 | 13.7 | –
x1 = 0.014 | 0.096 | 0.162 | 20.3 | 16.5 | 13.5 | 9.4
x2 = 0 | – | – | 123.5 | – | 75.7 | 49.7
x2 = 0.304 | 0.68 | 1.13 | 54.6 | 44.5 | 36.7 | 25.1
x2 = 0.406 | 0.79 | – | – | 34.4 | 28.7 | –
x2 = 0.506 | 0.86 | 1.36 | 32.3 | 26.9 | 22.7 | 16.6
x2 = 0.597 | – | 1.48 | 25.8 | – | 18.3 | 13.5
x2 = 0.7 | 0.97 | 1.51 | 20.9 | 17.6 | 14.9 | 11
x2 = 0.792 | 0.87 | 1.38 | 18.4 | 15.4 | – | 9.59
x2 = 0.851 | – | 1.16 | 17.8 | – | 12.5 | 9.08
x2 = 0.899 | 0.53 | 0.86 | 18 | 14.9 | 12.4 | 8.92
x2 = 0.938 | 0.36 | – | 18.6 | 15.3 | 12.7 | –
x2 = 0.972 | 0.178 | 0.299 | 19.7 | 16.1 | 13.2 | 9.28

CC[n+]1ccn(C)c1.O=S(=O)([O-])C(F)(F)F + OCCO
Details | electrical conductivity, 298.15 K [S/m] | electrical conductivity, 313.15 K [S/m] | viscosity, 293.15 K [mPa·s] | viscosity, 298.15 K [mPa·s] | viscosity, 303.15 K [mPa·s] | viscosity, 313.15 K [mPa·s]
x1 = 0.001 | – | 0.0144 | 20.75 | – | 13.8 | 9.535
x1 = 0.002 | 0.0193 | 0.0335 | 20.6 | 16.7 | – | 9.46
x1 = 0.007 | 0.054 | 0.093 | – | 16.5 | 13.5 | 9.39
x1 = 0.013 | 0.082 | 0.137 | 20.1 | 16.3 | – | 9.28
x2 = 0.2 | 1.21 | 1.83 | 32.8 | 27.6 | – | 17.3
x2 = 0.413 | 1.44 | 2.17 | 21.9 | 18.6 | 15.9 | 11.9
x2 = 0.497 | – | – | 19.4 | 16.4 | 14 | –
x2 = 0.498 | 1.51 | 2.28 | – | – | – | –
x2 = 0.586 | 1.41 | 2.12 | – | – | – | –
x2 = 0.587 | – | – | 17.6 | 14.8 | 12.7 | 9.5
x2 = 0.697 | 1.25 | 1.91 | 15.8 | 13.3 | 11.3 | 8.39
x2 = 0.808 | 0.95 | – | 15.7 | 13 | 11 | –
x2 = 0.863 | 0.74 | 1.2 | 15.6 | 12.9 | 10.1 | 7.81
x2 = 0.907 | 0.52 | 0.87 | 17.1 | 14.1 | 11.7 | 8.32
x2 = 0.944 | 0.331 | 0.56 | 18.3 | 15 | 12.4 | 8.71
x2 = 0.974 | 0.161 | 0.276 | – | 15.9 | 13.1 | 9.1
